The numbers were not newly measured in patent US9085569B2, “1,2,4-oxadiazol derivatives, process for their preparation and use thereof as intermediates in the preparation of indolic alkaloids” (CONSIGLIO NAZIONALE DELLE RICERCHE, priority 2012, dated 2015), which cites them from elsewhere.

The subject of this data set is HeLa cell line (uterine cervix cancer). The settings on record: background statement.

Turning to `N=C(N)NCCCCCNc1noc(Cc2c[nH]c3ccccc23)n1` [phidianidine B], the cytotoxic activity result is recorded as “high cytotoxic activity”.
